# Experimental data: US7485667B2, “Acetylenic aryl sulfonate hydroxamic acid tace and matrix metalloproteinase inhibitors” (Wyeth Holdings Corporation, priority 2002, dated 2009)
# Experiments:
# [1] = target: TNF-α converting enzyme (TACE) (Homo sapiens, UniProt P78536); test: TACE inhibition (fluorescent peptidyl substrate); type: biochemical
# Protocol: Test Procedure for Measuring TACE Inhibition
# Using 96-well black microtiter plates, each well receives a solution composed of 10 μL TACE (final concentration 1 μg/mL), 70 μL Tris buffer, pH 7.4 containing 10% glycerol (final concentration 10 mM), and 10 μL of test compound solution in DMSO (final concentration 1 μM, DMSO concentration <1%) and incubated for 10 minutes at room temperature. The reaction is initiated by addition of a fluorescent peptidyl substrate (final concentration 100 μM) to each well and then shaking on a shaker for 5 sec.
# The reaction is read (excitation 340 nm, emission 420 nm) for 10 min. and the increase in fluorescence over time is plotted as a linear line. The slope of the line is calculated and represents the reaction rate.
# (§1) The linearity of the reaction rate is confirmed (r^2>0.85). The mean (x±sem) of the control rate is calculated and compared for statistical significance (p<0.05) with drug-treated rates using Dunnett's multiple comparison test. Dose-response relationships can be generate using multiple doses of drug and IC50 values with 95% Cl are estimated using linear regression.
# MMP-1 = target: T1, MMP-1 (Homo sapiens, UniProt P03956); test: MMP-1 inhibition (thiopeptide or fluorescent peptide substrate); type: biochemical; conditions: read-out: MMP-1 % Inhib
# T1 sequence (P03956 100-469): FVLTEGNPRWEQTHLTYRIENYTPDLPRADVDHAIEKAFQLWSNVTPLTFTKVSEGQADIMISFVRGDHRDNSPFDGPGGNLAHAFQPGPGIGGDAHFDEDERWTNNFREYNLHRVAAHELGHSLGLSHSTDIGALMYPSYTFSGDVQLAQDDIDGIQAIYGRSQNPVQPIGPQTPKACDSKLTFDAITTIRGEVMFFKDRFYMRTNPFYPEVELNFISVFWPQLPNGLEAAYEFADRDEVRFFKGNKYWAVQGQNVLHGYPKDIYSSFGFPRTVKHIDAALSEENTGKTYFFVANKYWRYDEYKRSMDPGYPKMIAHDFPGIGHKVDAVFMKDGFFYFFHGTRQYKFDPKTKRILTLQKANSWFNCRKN
# Protocol: (§2) Test Procedures for Measuring MMP-1 and MMP-13 Inhibition
# (§3) These standard pharmacological test procedures are based on the cleavage of a thiopeptide substrates such as Ac-Pro-Leu-Gly(2-mercapto-4-methyl-pentanoyl)-Leu-Gly-OEt by the matrix metalloproteinases MMP-1 or MMP-13 (collagenases) which results in the release of a substrate product that reacts colorimetrically with DTNB (5,5′-dithiobis(2-nitro-benzoic acid)). The enzyme activity is measured by the rate of the color increase. The thiopeptide substrate is made up fresh as a 20 mM stock in 100% DMSO and the DTNB is dissolved in 100% DMSO as a 100 mM stock and stored in the dark at room temperature. Both the substrate and DTNB are diluted together to 1 mM with substrate buffer (50 mM HEPES pH 7.5, 5 mM CaCl2) before use. The stock of enzyme is diluted with buffer (50 mM HEPES, pH 7.5, 5 mM CaCl2, 0.02% Brij) to the desired final concentration. The buffer, enzyme, vehicle or inhibitor, and DTNB/substrate are added in this order to a 96 well plate (total reaction volume of 200 μl) and the increase in color is monitored spectrophotometrically for 5 minutes at 405 nm on a plate reader and the increase in color over time is plotted as a linear line.
# (§4) Alternatively, a fluorescent peptide substrate is used. In this test procedure, the peptide substrate contains a fluorescent group and a quenching group. Upon cleavage of the substrate by an MMP, the fluorescence that is generated is quantitated on the fluorescence plate reader. The assay is run in HCBC assay buffer (50 mM HEPES, pH 7.0, 5 mM Ca^+2, 0.02% Brij, 0.5% Cysteine), with human recombinant MMP-1 or MMP-13. The substrate is dissolved in methanol and stored frozen in 1 mM aliquots. For the assay, substrate and enzymes are diluted in HCBC buffer to the desired concentrations. Compounds are added to the 96 well plate containing enzyme and the reaction is started by the addition of substrate. The reaction is read (excitation 340 nm, emission 444 nm) for 10 min. and the increase in fluorescence over time is plotted as a linear line.
# as §1, with “For either the thiopeptide or fluorescent peptide test procedures, the slope of the line is calculated and represents the reaction rate. The linearity” for “The linearity”, “can be generated using multiple” for “can be generate using multiple”
# THP-1 cells = test: THP-1 soluble protein assay (LPS-stimulated THP-1 cells, ELISA); type: cell-based; conditions: Homo sapiens
# Description: Human Monocytic THP-1 Cell Differentiation Assay for Soluble Proteins (THP-1 Soluble Protein Assay)
# Mitogenic stimulation of THP-1 cells cause differentiation into macrophage like cells with concomitant secretion of tumor necrosis factor (TNF-a) and TNF receptor (TNF-R p75/80 and TNF-R p55/60) and Interleukin-8 (IL-8), among other proteins. In addition, non-stimulated THP-1 cells shed both the p75/80 and the p55/60 receptors over time. The release of membrane bound TNF-α and possibly TNF-R p75/80 and TNF-R p55/60, but not IL-8, is mediated by an enzyme called TNF-a converting enzyme or TACE.
# THP-1 cells (from ATCC) are a human monocytic cell line which are obtained from the peripheral blood of a person with acute monocytic leukemia. They can be grown in culture and differentiated into macrophage like cells by stimulation with mitogens.
# For the assay, THP-1 cells are seeded from an ATCC stock which is previously grown and frozen back at 5×10^6/ml/vial. One vial is seeded into a T25-flask with 16 mls of RPMI-1640 with glutamax (Gibco) media containing 10% fetal bovine serum, 100 units/ml penicillin, 100 μg/ml streptomycin, and 5×10^−5 M 2-mercapto-ethanol (THP-1 media). Each vial of cells are cultured for about two weeks prior to being used for an assay and then are used for only 4 to 6 weeks to screen compounds. Cells are subcultured on Mondays and Thursdays to a concentration of 1×10^5/ml.
# To perform an assay, the THP-1 cells are co-incubated in a 24 well plate with […] of a 24 mg/ml stock of Lipopolysacharide (LPS) (Calbiochem Lot# B13189) at 37° C. in 5% CO2 at a concentration of 1.091×10^6 cells/ml (1.1 ml/well) for a total of 24 hours. At the same time, […] of drug, vehicle or THP-1 media is plated in appropriate wells to give a final volume of 1.2 ml/well. Standard and test compounds are dissolved in DMSO at a concentration of 36 mM and diluted from here to the appropriate concentrations in THP-1 media and added to the wells at the beginning of the incubation period to give final concentrations of […], 300 nM, and 100 nM. Cell exposure to DMSO is limited to 0.1% final concentration. Positive control wells are included in the experiment which had mitogen added but no drug. Vehicle control wells are included as well, which are identical to the positive control wells, except that DMSO is added to give a final concentration of 0.083%. Negative control wells are included in the experiment which had vehicle but no mitogen or drug added to the cells. Compounds can be evaluated for their effect on basal (non-stimulated) shedding of the receptors by replacing the LPS with […] of THP-1 media. Plates are placed into an incubator set at 5% CO2 and at 37° C. […]
# In addition, at the 24 hours timepoint, and the cells for each treatment group are collected by resuspension in 500 μl/well of THP-1 media and transferred into a FACS tube. […] The samples are run on a Becton Dickinson FaxCaliber FLOW cytometry machine and the amount of dye taken up by each cell is measured in the high red wavelength (FL3). […] The percent of live cells is calculated by the number of cells not stained with PI, divided by the total number of cells in the sample. The viability values calculated for the drug treated groups are compared to the viability value calculated for the vehicle treated mitogen stimulated group (“vehicle positive control”) to determine the “percent change from control”. […]
# MMP-13 = MMP-13 (Homo sapiens, UniProt P45452); test: MMP-13 inhibition (thiopeptide or fluorescent peptide substrate); type: biochemical; conditions: read-out: MMP-13 % Inhib
# Protocol: as §2, §3, §4
# as §1, with “For either the thiopeptide or fluorescent peptide test procedures, the slope of the line is calculated and represents the reaction rate. The linearity” for “The linearity”, “can be generated using multiple” for “can be generate using multiple”
# Chain of TNF-α converting enzyme (TACE) (P78536 215-824, species assumed): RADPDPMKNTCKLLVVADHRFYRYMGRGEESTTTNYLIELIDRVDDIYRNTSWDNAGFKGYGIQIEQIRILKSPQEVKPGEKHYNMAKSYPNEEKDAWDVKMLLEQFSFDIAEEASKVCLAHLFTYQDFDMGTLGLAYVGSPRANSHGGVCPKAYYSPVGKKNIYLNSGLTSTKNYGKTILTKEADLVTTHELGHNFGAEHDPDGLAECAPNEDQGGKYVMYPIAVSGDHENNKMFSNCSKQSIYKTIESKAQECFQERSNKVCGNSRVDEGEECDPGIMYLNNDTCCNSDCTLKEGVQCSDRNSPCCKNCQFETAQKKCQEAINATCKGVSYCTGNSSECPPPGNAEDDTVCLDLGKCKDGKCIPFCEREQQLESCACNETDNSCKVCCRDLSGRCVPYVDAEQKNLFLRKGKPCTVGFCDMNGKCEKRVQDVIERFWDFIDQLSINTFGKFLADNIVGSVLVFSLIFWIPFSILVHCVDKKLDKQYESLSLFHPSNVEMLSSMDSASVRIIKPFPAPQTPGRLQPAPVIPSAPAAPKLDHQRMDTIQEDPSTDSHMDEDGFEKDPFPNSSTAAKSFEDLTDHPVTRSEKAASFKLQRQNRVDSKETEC
IC50 [1] [nM],inhibition at 10 µM (MMP-1) [%],inhibition at 10 µM (MMP-13) [%],SMILES,inhibition at 1 µM (THP-1 cells) [%]
19,11,38,"CC#CCOc1ccc(S(=O)(=O)Oc2c(C)cccc2C(=O)NO)cc1 [Example 1, 2-[(Hydroxyamino)carbonyl]-6-methylphenyl 4-(2-butynyloxy)benzenesulfonate]",11
67,16,64,"CC#CCOc1ccc(S(=O)(=O)Oc2cc3ccccc3cc2C(=O)NO)cc1 [Example 5, 3-[(Hydroxyamino)carbonyl]-2-naphthyl 4-(2-butynyloxy)benzenesulfonate]",0
13,7,56,"CC#CCOc1ccc(S(=O)(=O)Oc2c(OC)cccc2C(=O)NO)cc1 [Example 2, 2-[(Hydroxyamino)carbonyl]-6-methoxyphenyl 4-(2-butynyloxy)benzenesulfonate]",1
361,3,45,"CC#CCOc1ccc(S(=O)(=O)Oc2c(C(=O)NO)cc(C(C)C)cc2C(C)C)cc1 [Example 4, 2-[(Hydroxyamino)carbonyl]-4,6-diisopropylphenyl 4-(2-butynyloxy)benzenesulfonate]",6
31,11,27,"CC#CCOc1ccc(S(=O)(=O)Oc2ccc(C)cc2C(=O)NO)cc1 [Example 3, 2-[(Hydroxyamino)carbonyl]-4-methylphenyl 4-(2-butynyloxy)benzenesulfonate]",0
